ChEMBL document CHEMBL4007384, “Synthesis and optimization of furano[3,2-d]pyrimidines as selective spleen tyrosine kinase (Syk) inhibitors” (Bioorg Med Chem Lett, 2016)

Columns and labels:
[1] = biological target: Mitogen-activated protein kinase 9 (Homo sapiens, UniProt P45984); experiment: Inhibition of JNK2 (unknown origin) after 60 mins by TR-FRET assay
[2] = biological target: Platelet-derived growth factor receptor beta (Homo sapiens, UniProt P09619); experiment: Inhibition of PDGFRB (unknown origin) after 60 mins by TR-FRET assay
[3] = biological target: Tyrosine-protein kinase JAK2 (Homo sapiens, UniProt O60674); experiment: Inhibition of JAK2 (unknown origin) after 60 mins by TR-FRET assay
[4] = biological target: Calcium/calmodulin-dependent protein kinase type II subunit alpha (Homo sapiens, UniProt Q9UQM7); experiment: Inhibition of human CAMK2A (unknown origin) after 60 mins by TR-FRET assay
[5] = Unbound clearance in rat microsomes; type: ADME, Microsome
[6] = biological target: T1, Tyrosine-protein kinase JAK3 (Homo sapiens, UniProt P52333); experiment: Inhibition of JAK3 (unknown origin) after 60 mins by TR-FRET assay
T1 sequence (P52333 whole entry): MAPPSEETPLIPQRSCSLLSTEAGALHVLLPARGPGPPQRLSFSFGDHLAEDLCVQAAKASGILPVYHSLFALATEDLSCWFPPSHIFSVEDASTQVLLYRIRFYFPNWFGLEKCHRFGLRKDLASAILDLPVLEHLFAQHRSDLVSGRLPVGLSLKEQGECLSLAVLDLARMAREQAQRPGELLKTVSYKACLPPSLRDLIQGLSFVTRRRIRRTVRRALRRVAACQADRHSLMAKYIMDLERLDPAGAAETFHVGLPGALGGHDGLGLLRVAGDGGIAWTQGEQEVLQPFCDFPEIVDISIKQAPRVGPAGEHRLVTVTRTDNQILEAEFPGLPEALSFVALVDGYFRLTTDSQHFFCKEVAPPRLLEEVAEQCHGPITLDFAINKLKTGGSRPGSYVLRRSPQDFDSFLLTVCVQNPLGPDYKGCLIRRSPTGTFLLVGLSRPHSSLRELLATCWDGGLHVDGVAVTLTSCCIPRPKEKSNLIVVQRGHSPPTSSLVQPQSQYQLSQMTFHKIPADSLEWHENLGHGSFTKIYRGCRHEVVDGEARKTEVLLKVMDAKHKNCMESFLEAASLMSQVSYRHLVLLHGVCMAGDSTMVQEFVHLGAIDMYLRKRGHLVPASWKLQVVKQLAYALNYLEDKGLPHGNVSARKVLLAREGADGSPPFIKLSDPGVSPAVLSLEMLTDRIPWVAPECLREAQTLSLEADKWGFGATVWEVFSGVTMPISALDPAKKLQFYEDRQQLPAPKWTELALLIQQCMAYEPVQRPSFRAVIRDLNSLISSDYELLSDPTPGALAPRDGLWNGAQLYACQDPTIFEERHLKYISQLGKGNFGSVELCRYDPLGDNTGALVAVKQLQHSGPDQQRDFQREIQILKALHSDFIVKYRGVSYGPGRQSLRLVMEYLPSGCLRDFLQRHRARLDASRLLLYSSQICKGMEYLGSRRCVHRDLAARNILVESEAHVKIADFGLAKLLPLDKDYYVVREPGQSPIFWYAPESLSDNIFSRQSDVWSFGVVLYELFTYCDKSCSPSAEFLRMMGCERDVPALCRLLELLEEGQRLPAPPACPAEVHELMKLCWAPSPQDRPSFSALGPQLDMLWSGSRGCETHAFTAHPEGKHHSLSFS

[7] = biological target: Serine/threonine-protein kinase PAK 4 (Homo sapiens, UniProt O96013); experiment: Inhibition of PAK4 kinase domain (unknown origin) after 60 mins by TR-FRET assay
[8] = biological target: Cyclin-dependent kinase 9 (Homo sapiens, UniProt P50750); experiment: Inhibition of CDK9 (unknown origin) after 60 mins by TR-FRET assay
[9] = biological target: Calcium/calmodulin-dependent protein kinase type 1D (Homo sapiens, UniProt Q8IU85); experiment: Inhibition of human CAMK1D (unknown origin) after 60 mins by TR-FRET assay
[10] = biological target: Vascular endothelial growth factor receptor 1 (Homo sapiens, UniProt P17948); experiment: Inhibition of Flt1(unknown origin) after 60 mins by TR-FRET assay
[11] = biological target: G protein-coupled receptor kinase 5 (Homo sapiens, UniProt P34947); experiment: Inhibition of GRK5 (unknown origin) after 60 mins by TR-FRET assay
[12] = biological target: Glycogen synthase kinase-3 alpha (Homo sapiens, UniProt P49840); experiment: Inhibition of GSK3A (unknown origin) after 60 mins by TR-FRET assay
[13] = biological target: Casein kinase I isoform alpha (Homo sapiens, UniProt P48729); experiment: Inhibition of CK1alpha1 (unknown origin) after 60 mins by TR-FRET assay
[14] = biological target: Tyrosine-protein kinase BTK (Homo sapiens, UniProt Q06187); experiment: Inhibition of BTK (unknown origin) after 60 mins by TR-FRET assay
[15] = biological target: Mitogen-activated protein kinase 8 (Homo sapiens, UniProt P45983); experiment: Inhibition of JNK1 (unknown origin) after 60 mins by TR-FRET assay
[16] = biological target: T2, Aurora kinase A (Homo sapiens, UniProt O14965); experiment: Inhibition of AURKA (unknown origin) after 60 mins by TR-FRET assay
T2 sequence (O14965 whole entry): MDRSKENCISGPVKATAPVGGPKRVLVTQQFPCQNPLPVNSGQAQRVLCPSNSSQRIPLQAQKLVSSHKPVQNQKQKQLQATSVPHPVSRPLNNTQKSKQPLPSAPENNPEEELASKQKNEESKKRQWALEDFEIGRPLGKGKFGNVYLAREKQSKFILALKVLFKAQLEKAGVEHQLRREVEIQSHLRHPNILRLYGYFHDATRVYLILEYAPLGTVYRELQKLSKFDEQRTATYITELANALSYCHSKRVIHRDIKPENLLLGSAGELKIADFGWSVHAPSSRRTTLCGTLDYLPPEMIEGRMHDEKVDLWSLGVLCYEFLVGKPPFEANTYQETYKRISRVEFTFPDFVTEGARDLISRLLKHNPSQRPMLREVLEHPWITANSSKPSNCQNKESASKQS

[17] = biological target: Tyrosine-protein kinase SYK (Homo sapiens, UniProt P43405)
Description: Inhibition of Syk in human Ramos B cells assessed as decrease in intracellular calcium flux measured for 3.5 mins by calcium-5 dye based FLIPR assay

Chain of Casein kinase I isoform alpha (P48729 whole entry, canonical isoform): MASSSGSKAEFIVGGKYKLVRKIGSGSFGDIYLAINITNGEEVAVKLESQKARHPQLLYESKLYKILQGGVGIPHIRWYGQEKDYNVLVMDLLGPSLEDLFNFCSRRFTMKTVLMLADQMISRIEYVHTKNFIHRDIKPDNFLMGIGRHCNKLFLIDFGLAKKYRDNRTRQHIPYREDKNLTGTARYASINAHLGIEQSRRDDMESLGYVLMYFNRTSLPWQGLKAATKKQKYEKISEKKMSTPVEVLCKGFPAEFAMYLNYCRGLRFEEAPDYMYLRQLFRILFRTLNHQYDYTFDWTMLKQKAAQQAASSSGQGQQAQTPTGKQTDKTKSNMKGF
Chain of G protein-coupled receptor kinase 5 (P34947 whole entry): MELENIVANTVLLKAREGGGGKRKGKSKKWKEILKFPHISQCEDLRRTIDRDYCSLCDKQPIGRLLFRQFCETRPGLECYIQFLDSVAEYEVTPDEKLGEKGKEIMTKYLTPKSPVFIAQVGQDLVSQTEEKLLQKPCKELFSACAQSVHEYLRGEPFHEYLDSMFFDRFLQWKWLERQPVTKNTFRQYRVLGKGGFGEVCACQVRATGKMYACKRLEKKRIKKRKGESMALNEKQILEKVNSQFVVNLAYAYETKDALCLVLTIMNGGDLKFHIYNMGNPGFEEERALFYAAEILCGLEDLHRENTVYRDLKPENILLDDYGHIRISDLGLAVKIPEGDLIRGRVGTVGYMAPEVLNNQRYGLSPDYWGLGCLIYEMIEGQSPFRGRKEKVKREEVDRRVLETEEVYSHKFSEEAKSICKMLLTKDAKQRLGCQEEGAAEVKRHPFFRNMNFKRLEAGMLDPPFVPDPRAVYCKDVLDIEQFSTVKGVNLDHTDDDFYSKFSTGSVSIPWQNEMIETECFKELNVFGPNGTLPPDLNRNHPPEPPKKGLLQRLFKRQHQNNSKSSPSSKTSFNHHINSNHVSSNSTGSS
Chain of Serine/threonine-protein kinase PAK 4 (O96013 whole entry, the tested form may be a part): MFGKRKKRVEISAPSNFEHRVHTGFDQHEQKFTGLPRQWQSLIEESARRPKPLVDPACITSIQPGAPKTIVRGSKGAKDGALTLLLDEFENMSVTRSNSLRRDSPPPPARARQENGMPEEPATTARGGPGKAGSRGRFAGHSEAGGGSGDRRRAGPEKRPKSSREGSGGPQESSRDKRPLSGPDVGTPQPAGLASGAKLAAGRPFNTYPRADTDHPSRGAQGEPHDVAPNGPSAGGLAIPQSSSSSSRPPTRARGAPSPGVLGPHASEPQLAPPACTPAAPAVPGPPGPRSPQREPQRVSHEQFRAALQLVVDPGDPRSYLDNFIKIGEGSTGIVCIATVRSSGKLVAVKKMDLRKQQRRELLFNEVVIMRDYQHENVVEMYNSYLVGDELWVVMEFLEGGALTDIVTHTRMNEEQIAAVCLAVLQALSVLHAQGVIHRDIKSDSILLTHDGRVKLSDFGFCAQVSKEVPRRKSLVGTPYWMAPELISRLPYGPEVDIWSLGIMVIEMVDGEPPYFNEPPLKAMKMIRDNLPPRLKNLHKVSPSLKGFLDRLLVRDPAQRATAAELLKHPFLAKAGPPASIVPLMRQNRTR
Chain of Mitogen-activated protein kinase 9 (P45984 whole entry): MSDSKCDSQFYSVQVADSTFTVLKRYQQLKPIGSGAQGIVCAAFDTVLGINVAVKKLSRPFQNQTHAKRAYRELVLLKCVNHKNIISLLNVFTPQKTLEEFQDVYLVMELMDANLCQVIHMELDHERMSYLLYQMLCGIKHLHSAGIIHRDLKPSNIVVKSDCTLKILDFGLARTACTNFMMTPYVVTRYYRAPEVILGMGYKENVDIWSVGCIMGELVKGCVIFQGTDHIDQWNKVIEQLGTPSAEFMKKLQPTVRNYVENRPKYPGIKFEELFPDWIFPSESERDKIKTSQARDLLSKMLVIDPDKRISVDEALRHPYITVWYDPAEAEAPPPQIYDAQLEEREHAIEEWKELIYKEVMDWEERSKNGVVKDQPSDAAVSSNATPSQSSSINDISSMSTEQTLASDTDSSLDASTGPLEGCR
Chain of Tyrosine-protein kinase JAK2 (O60674 whole entry): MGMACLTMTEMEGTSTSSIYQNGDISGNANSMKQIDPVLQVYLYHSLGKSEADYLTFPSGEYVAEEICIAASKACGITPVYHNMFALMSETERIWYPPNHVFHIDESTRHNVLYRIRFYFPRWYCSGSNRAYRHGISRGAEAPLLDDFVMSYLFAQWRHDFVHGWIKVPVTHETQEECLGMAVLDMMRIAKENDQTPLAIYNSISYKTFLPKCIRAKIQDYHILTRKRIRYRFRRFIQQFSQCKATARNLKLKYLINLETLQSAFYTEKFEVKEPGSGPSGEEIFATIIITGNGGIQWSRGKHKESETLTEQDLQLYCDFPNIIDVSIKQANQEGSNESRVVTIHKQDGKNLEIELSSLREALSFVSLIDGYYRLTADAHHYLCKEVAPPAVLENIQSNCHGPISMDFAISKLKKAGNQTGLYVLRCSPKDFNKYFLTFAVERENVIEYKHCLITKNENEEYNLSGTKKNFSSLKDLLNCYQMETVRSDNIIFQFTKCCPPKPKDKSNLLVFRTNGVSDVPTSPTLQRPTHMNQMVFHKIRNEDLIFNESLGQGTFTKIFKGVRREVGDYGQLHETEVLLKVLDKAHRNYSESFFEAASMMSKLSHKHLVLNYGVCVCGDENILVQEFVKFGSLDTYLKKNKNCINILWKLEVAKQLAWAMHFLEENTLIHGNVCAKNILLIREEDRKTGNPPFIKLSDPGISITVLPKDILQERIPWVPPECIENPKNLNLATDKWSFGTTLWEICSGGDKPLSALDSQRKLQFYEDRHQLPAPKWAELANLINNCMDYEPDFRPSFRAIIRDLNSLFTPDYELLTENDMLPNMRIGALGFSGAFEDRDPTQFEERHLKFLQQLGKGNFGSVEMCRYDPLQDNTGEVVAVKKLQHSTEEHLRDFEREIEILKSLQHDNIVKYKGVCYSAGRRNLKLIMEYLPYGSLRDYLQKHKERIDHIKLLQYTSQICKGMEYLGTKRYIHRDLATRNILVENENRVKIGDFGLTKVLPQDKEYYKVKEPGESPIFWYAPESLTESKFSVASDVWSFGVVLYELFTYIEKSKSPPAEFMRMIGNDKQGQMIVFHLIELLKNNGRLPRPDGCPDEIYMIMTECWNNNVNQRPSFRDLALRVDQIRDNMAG
Chain of Glycogen synthase kinase-3 alpha (P49840 whole entry, canonical isoform): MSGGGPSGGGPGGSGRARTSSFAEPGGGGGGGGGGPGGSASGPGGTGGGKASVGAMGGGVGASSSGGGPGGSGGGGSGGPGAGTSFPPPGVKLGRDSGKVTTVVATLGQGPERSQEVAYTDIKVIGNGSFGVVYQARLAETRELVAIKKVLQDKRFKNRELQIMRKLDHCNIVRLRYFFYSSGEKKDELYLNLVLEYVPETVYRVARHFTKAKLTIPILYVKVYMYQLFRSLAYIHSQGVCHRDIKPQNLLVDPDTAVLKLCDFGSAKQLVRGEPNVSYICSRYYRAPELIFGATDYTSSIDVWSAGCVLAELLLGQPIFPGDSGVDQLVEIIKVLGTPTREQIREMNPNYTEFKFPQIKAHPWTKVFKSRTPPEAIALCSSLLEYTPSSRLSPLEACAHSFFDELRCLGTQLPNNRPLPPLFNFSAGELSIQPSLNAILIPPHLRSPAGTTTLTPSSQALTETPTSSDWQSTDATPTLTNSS
Chain of Calcium/calmodulin-dependent protein kinase type 1D (Q8IU85 whole entry): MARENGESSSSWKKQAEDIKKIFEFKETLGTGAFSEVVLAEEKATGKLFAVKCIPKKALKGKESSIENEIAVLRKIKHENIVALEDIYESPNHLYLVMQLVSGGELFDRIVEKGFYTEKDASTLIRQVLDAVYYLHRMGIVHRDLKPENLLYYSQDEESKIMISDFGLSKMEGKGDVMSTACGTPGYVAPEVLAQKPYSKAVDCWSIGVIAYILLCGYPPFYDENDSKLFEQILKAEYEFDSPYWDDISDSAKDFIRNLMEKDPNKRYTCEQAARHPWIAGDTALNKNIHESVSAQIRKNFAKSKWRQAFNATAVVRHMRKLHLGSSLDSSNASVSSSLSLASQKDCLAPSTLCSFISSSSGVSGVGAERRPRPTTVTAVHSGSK
Chain of Mitogen-activated protein kinase 8 (P45983 whole entry): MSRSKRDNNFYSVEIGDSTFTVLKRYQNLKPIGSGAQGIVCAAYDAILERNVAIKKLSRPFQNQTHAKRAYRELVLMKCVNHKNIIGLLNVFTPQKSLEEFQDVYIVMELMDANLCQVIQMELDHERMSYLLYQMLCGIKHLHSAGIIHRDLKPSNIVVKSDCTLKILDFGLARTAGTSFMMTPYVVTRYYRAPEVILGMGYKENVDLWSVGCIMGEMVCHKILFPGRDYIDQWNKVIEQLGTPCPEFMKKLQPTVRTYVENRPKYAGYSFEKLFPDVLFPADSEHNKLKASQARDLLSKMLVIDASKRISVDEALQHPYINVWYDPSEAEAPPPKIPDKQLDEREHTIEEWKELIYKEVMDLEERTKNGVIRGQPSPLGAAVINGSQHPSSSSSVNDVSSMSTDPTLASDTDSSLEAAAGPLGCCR
Chain of Calcium/calmodulin-dependent protein kinase type II subunit alpha (Q9UQM7 whole entry): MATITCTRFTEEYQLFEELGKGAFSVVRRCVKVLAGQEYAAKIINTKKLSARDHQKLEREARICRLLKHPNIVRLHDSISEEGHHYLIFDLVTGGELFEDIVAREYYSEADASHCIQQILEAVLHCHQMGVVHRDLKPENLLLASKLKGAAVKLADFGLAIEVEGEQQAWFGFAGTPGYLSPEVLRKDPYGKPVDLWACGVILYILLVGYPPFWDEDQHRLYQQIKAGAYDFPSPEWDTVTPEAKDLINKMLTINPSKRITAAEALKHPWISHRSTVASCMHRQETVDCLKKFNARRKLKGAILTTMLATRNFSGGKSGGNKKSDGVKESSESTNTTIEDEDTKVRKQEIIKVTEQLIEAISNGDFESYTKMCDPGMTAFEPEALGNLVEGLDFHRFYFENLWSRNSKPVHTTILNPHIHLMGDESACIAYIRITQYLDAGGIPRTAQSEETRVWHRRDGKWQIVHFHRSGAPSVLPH

| IC50 [1] [µM] | IC50 [2] [µM] | IC50 [3] [µM] | IC50 [4] [µM] | CL free [5] [mL/min/kg] | IC50 [6] [µM] | IC50 [7] [µM] | IC50 [8] [µM] | IC50 [9] [µM] | IC50 [10] [µM] | IC50 [11] [µM] | IC50 [12] [µM] | IC50 [13] [µM] | IC50 [14] [µM] | IC50 [15] [µM] | IC50 [16] [µM] | EC50 [17] [µM] | SMILES |
| --- | --- | --- | --- | --- | --- | --- | --- | --- | --- | --- | --- | --- | --- | --- | --- | --- | --- |
| > 10 | 5.19 | 0.236 | > 10 | < 81.7 | > 10 | > 10 | > 10 | > 10 | 9.13 | > 10 | > 10 | > 10 | 5.02 | 2.67 | 4.05 | 0.017 | CC1(C)OCC(=O)Nc2cc(Nc3nc(NCC(F)(F)F)c4occc4n3)ccc21 |
| > 10 | > 10 |  | > 10 | 255 | > 10 | 6.44 | > 10 | > 10 | > 10 | 8.12 | 9.36 |  | > 10 | 2.89 | > 10 | 0.235 | FC(F)(F)CNc1nc(Nc2ccc3cn[nH]c3c2)nc2ccoc12 |
| > 10 | > 10 | 4.17 | > 10 |  | > 10 | 6.79 | > 10 | > 10 | > 10 | 9.96 | > 10 | 7.54 | > 10 | 2.75 | > 10 |  | Cc1n[nH]c2cc(Nc3nc(NC4CC4)c4occc4n3)ccc12 |
| > 10 | > 10 | 2.32 | > 10 | 1600 | > 10 | > 10 | > 10 | > 10 | > 10 | > 10 | > 10 | > 10 | > 10 | 0.513 | > 10 | 0.117 | FC(F)(F)CNc1nc(Nc2ccc(N3CCOCC3)c(Cl)c2)nc2ccoc12 |
